Data as given in PMC10761119, “Phosphorylation-state dependent intraneuronal sorting of Aβ differentially impairs autophagy and the endo-lysosomal system” (Autophagy, 2023).

Columns and labels:
primary cortical neurons = experiment: Lysosome enrichment, immunoisolation of LAMP2- or LC3-positive vesicles and Aβ immunoprecipitation with western immunoblotting; type: cell-based, mouse; details: Aβ 500 nM, 4 h; for Intraneuronal accumulation of Aβ peptides by immunoprecipitation of total Aβ (rank order): IP from PNS with 4G8; for Aβ levels in the lysosomal/late endosomal enriched fraction (16,000 g pellet): immunoblot, two independent experiments; for Aβ in LAMP2-immunoisolated lysosomes: compared to p-Ser8Aβ
Description: Cells after respective washing steps were collected by scraping and homogenized in isotonic buffer (10 mM Tris-HCl, pH 7.4, 1 mM MgCl2, 0.1 mM EGTA, 0.25 M sucrose) containing protease and phosphatase inhibitors, by repeated suspension through a 23 G × 1” needle. Cell homogenate was centrifuged at 2,000 g for 5 min. Pellet (nuclear material) was discarded. The post-nuclear supernatant was centrifuged at 16,100 g for 15 min. Pellet comprised of lysosome enriched material and the supernatant was used as the crude lysosome depleted material. Pellet was resuspended in STEN-lysis buffer and the lysosome enriched fraction was the supernatant collected after centrifugation at 16,100 g for 15 min. Supernatant was further centrifuged at 16,100 g for 60 min. The resultant pellet contained lysosome depleted material and supernatant was crude cytosolic material. The pellet was re-homogenized in STEN-lysis buffer and the supernatant was the lysosome depleted fraction collected post-centrifugation at 16,100 g for 15 min.
Cells after respective washing steps were collected by scraping and homogenized in either isotonic buffer or hypotonic D buffer containing protease and phosphatase inhibitors by repeated suspension through a 23 G × 1” needle. Cell homogenate was centrifuged at 2,000 g for 5 min and the nuclear material (pellet) was discarded. The post-nuclear supernatant was then used for IP experiments. Sepharose G beads (ThermoFisher Scientific, 101242) were incubated with PNS material at RT for 1 h, beads were further pelleted down and boiled in 1% SDS in 50 mM Tris-HCl, pH 7.6 along with sample buffer, used as bead control. Supernatant exposed to beads only were devoid of nonspecific binding substrates and was used further as loading control. New set of beads were precoated with respective primary antibodies for 1 h and then incubated with the PNS solutions overnight at 4°C. Beads were pelleted down and boiled with 1% SDS in 50 mM Tris-HCl along with sample buffer as the IP eluate.
For different cellular fractions prepared as described earlier, the protein content was estimated using the standard Pierce™ BCA protein assay kit (ThermoFisher Scientific, 23225). For direct comparison between the samples, equal amount of protein was loaded. Samples were dissolved in Laemmli buffer and were boiled at 95°C for 5 min. They were loaded on a precast 4–12% NuPage® Bis-Tris gels (Life technologies, NP033–5/6, WG140–2/3). Gels and prestained protein molecular weight markers were purchased from Life technologies. The separated proteins were electro-transferred onto a 0.2-μm nitrocellulose (NT) membrane (Amersham, 1060001) for 1 h 45 min. After blotting, the NT membranes were boiled in PBS for 10 min. Ponceau staining was done to monitor protein loading of samples. The blots were then incubated in 5% skim milk in TBS-T (TBS [50 mM Tris-HCl, pH 7.5, 150 mM NaCl] containing 0.1% Tween 20 [Sigma Aldrich, P1379]) for 1 h at RT. Blots were incubated overnight at 4°C in the primary antibody solution (respective dilutions in TBS-T, Table 1). Blots were washed and incubated with appropriate secondary antibodies conjugated either with HRP or fluorescent dyes for 1 h. Blots were developed either by enhanced chemiluminescence (ECL) or fluorescence imaging. For ECL imaging, blots were incubated with equivalent mixtures of ECL solution A (0.1 M Tris, 0.4 mM coumaric acid, 2.5 mM luminol, pH 8.5) and B (0.1 M Tris, 0.018% H2O2) mixed prior to application on blots. Signals were detected with an ECL imager (Bio-Rad, Germany). For fluorescence detection, blots were imaged on a Li-COR imaging station (Li-COR Biosciences, Germany). Blots were presented as is or with minimal linear contrast enhancement (Figure 5B–D; S1; S3E; S5E, S8E). Quantification of band signals was done using ImageJ – Gel processing module or Image Studio processing software (LiCOR Biosciences, Germany). […]

SH-SY5Y cells = experiment: Autophagic flux with tandem reporter mCherry-GFP-LC3B; type: cell-based, human; details: Aβ 1 µM, 24 h, n = 8, N = 4; for Mander's overlap coefficient, R, of Aβ with GFP-positive vesicles / Mander's overlap coefficient, R, of Aβ with mCherry-positive vesicles: mean ± S.D.
Description: SH-SY5Y cells were transfected with either GFP-LC3-LC3Δ-RFP or mCherry-GFP-LC3B tandem constructs (0.5 μg/well +1 µl transfection reagent − 24 well plate) with Lipofectamine 2000 (Life Technologies, 11668019) in OptiMEM (Life Technologies, 11058021) in DMEM/F-12, FCS^− PS^− media. After 8 h, FCS^− PS^− media was changed to normal culture media, respectively. Transfection efficiency was around 50–60% in all analyzed coverslips.
SH-SY5Y cells seeded on D1, were treated with Aβ variants (1 μM) on D3 in DMEM/F-12 media without serum and antibiotics. Control treatment included treatment with equal volume of 10 mM NaOH solution used for preparing the Aβ stock solutions, in respective cell culture medium. SH-SY5Y cells, after 16 h of transient expression of the reporter constructs, were treated with different Aβ variants, autophagy modulator substrates and respective controls in DMEM/F-12, FCS^− PS^− media for the mentioned time points. After treatment, cells were washed twice with PBS and with 0.025% trypsin-EDTA in PBS to get rid of cell bound Aβ, followed by subsequent washings with PBS again. Cells were either collected by scraping using a cell-scraper or fixed with 4% PFA-PBS for 15 min at RT, for further immunocytochemistry experiments. Collected treatment media was centrifuged at 1000 g for 5 min, pellet discarded and supernatant frozen at −20°C until further usage.
All images were processed and analyzed using Fiji ImageJ software. Mander’s overlap coefficient (Figure 1B–D; Figure 2B–F; Figure 4B–F; Figure 6E; S2B, D; S4B, D; S6D, F) analysis was done using the colocalization processing module of the Fiji ImageJ plugin. Distance from the plaque core (Figure 1B) was measured using the concentric circles plugin module. Fluorescence intensity of the green channel (Figure S3A-B), and the number of neurons positive for Aβ signals (Figure S3-D) were quantified using the processing module of Keyence software. Intensity analysis (Figure S4E-I) was performed by manually selecting the region of interest (ROI) and measuring the intensity of the individual channels in the selected area. RFP/GFP (Figure 6A) and LysoSensor Green/Blue (Figure 7A) ratiometric images were created by using the image calculator module. Intensity of green and red channel for a particular ROI was calculated and ratios of the individual values were computed (Figure 6B and S7A). For computing the number of mCherry^+GFP^± vesicles or per cell (Figure 6D and S7B), cell outline was drawn manually and number of vesicles per cell (nucleus count – DAPI) was calculated. Similarly, the number of perinuclear and peripheral LAMP2-positive lysosomes or percentage of LAMP2 compartments containing Aβ was computed using the concentric circle processing module (Figure 7D). Due to slight variability in transfection efficiency or the number of cells in different experimental set-ups, the readings from each experiment were averaged and normalized to the control cells from that particular set. Average values from each experiment were normalized to the respective controls in the same set. Values from independent experiments were then computed and values are represented as independent data points.

Row | Substance | Intraneuronal accumulation of Aβ peptides by immunoprecipitation of total Aβ (rank order) (primary cortical neurons) | Aβ levels in the lysosomal/late endosomal enriched fraction (16,000 g pellet) (primary cortical neurons) | Aβ in LAMP2-immunoisolated lysosomes (primary cortical neurons; western immunoblot 82E1) | Ratio of mCherry:GFP fluorescence intensities (SH-SY5Y cells; compared to control cells) | Mander's overlap coefficient, R, of Aβ with GFP-positive vesicles (SH-SY5Y cells) | Mander's overlap coefficient, R, of Aβ with mCherry-positive vesicles (SH-SY5Y cells) | Number of mCherry+ GFP− vesicles per cell (SH-SY5Y cells) | Aβ in LC3 immunoisolated vesicles (primary cortical neurons; western immunoblot 82E1) | Number of mCherry+ GFP+ vesicles per cell (SH-SY5Y cells; compared to control and to p-Ser26Aβ treated cells)
1 | non-phosphorylated amyloid-β [npAβ, reference compound] | p-Ser8Aβ > p-Ser26Aβ > npAβ | moderate levels | strongly enriched | not significantly altered | 0.40 ± 0.05 | 0.61 ± 0.04 | – | – | –
2 | amyloid-β phosphorylated at serine residue 26 [p-Ser26Aβ] | p-Ser8Aβ > p-Ser26Aβ > npAβ | high levels | strongly enriched | – | 0.30 ± 0.05 | 0.70 ± 0.05 | significantly higher number | – | –
3 | amyloid-β phosphorylated at serine residue 8 [p-Ser8Aβ] | p-Ser8Aβ > p-Ser26Aβ > npAβ | only marginal levels | – | – | 0.56 ± 0.10 | 0.57 ± 0.06 | significantly least | high levels | significantly higher
